Assay results reported in PubChem BioAssay (NCI).
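Cultured in 96-well plates, cells were exposed to test compound for 48 hours across five concentrations. TGI denotes the concentration required for complete inhibition of growth.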

How the values were obtained:
Experiment in all cases: NCI-60 cell line screen, 48 h
A549 NSCLC = test system: A549 NSCLC
CCRF-CEM leukemia = test system: CCRF-CEM leukemia
SNB-19 CNS = test system: SNB-19 CNS
CAKI-1 renal = test system: CAKI-1 renal
SW-620 colon = test system: SW-620 colon
HOP-62 NSCLC = test system: HOP-62 NSCLC
NCI-H522 lung = test system: NCI-H522 lung
UACC-257 melanoma = test system: UACC-257 melanoma
KM12 colon = test system: KM12 colon
786-0 renal = test system: 786-0 renal
COLO 205 colon = test system: COLO 205 colon
NCI-H460 lung = test system: NCI-H460 lung
DMS 273 small cell lung = test system: DMS 273 small cell lung
SNB-75 CNS = test system: SNB-75 CNS
NCI-H23 lung = test system: NCI-H23 lung
RXF 393 renal = test system: RXF 393 renal
IGROV1 ovarian = test system: IGROV1 ovarian
HS 578T breast = test system: HS 578T breast
MCF7 breast = test system: MCF7 breast
MDA-MB-435 = test system: MDA-MB-435

For `Nc1ccc2nc(Nc3ccc(F)cc3)cnc2c1`, the TGI (A549 NSCLC) was > 100 µM, the TGI (CCRF-CEM leukemia) was > 100 µM and the TGI (SNB-19 CNS) was > 100 µM. The TGI (CAKI-1 renal) was > 100 µM, the TGI (SW-620 colon) was > 100 µM and the TGI (HOP-62 NSCLC) was > 100 µM. For the same molecule, the TGI (NCI-H522 lung) was > 100 µM, the TGI (UACC-257 melanoma) was > 100 µM and the TGI (KM12 colon) was > 100 µM. The TGI (786-0 renal) was > 100 µM, the TGI (COLO 205 colon) was > 100 µM and the TGI (NCI-H460 lung) was > 100 µM. For the same molecule, the TGI (DMS 273 small cell lung) was > 100 µM and the TGI (SNB-75 CNS) was > 100 µM.

`CC(=O)OC[C@]1(O)CC[C@@]23CC1C[C@@H]2CCC1C(C)(C)CCC[C@@]13C` (stereo partly drawn) was tested, and the TGI (NCI-H23 lung) was 26.4 µM, the TGI (A549 NSCLC) was 29.6 µM and the TGI (CCRF-CEM leukemia) was 25.7 µM. The TGI (SNB-19 CNS) was 27.6 µM, the TGI (CAKI-1 renal) was 32.4 µM and the TGI (RXF 393 renal) was 22.9 µM. For the same molecule, the TGI (SW-620 colon) was 22.5 µM, the TGI (IGROV1 ovarian) was 34.5 µM and the TGI (HOP-62 NSCLC) was 32.2 µM. The TGI (NCI-H522 lung) was 14.7 µM, the TGI (UACC-257 melanoma) was 29.4 µM and the TGI (KM12 colon) was 26.1 µM. It also gave a TGI (786-0 renal) of 31.6 µM, a TGI (COLO 205 colon) of 33.1 µM and a TGI (NCI-H460 lung) of 30.2 µM. It also gave a TGI (DMS 273 small cell lung) of 12.7 µM and a TGI (SNB-75 CNS) of 30 µM.

`CC(=O)OC1COC(Nc2ccc(C(C)=O)cc2)C(OC(C)=O)C1OC(C)=O` (stereo not drawn) was tested, and the TGI (NCI-H23 lung) was > 100 µM, the TGI (A549 NSCLC) was > 100 µM and the TGI (CCRF-CEM leukemia) was > 100 µM. For the same molecule, the TGI (SNB-19 CNS) was > 100 µM, the TGI (CAKI-1 renal) was > 100 µM and the TGI (RXF 393 renal) was > 100 µM. For the same molecule, the TGI (SW-620 colon) was > 100 µM, the TGI (IGROV1 ovarian) was > 100 µM and the TGI (HOP-62 NSCLC) was > 100 µM. The TGI (NCI-H522 lung) was > 100 µM, the TGI (UACC-257 melanoma) was > 100 µM and the TGI (KM12 colon) was > 100 µM. For the same molecule, the TGI (786-0 renal) was > 100 µM, the TGI (COLO 205 colon) was > 100 µM and the TGI (NCI-H460 lung) was > 100 µM. The TGI (DMS 273 small cell lung) was > 100 µM and the TGI (SNB-75 CNS) was > 100 µM.

`COc1ccc(C(=O)Cc2c(C(=O)c3ccccc3)c3ccccc3n2C(=O)c2ccccc2)cc1` was tested, and the TGI (NCI-H23 lung) was > 100 µM, the TGI (A549 NSCLC) was > 100 µM and the TGI (CCRF-CEM leukemia) was > 100 µM. For the same molecule, the TGI (SNB-19 CNS) was > 100 µM, the TGI (CAKI-1 renal) was > 100 µM and the TGI (SW-620 colon) was > 100 µM. For the same molecule, the TGI (IGROV1 ovarian) was > 100 µM, the TGI (HOP-62 NSCLC) was > 100 µM and the TGI (NCI-H522 lung) was > 100 µM. The TGI (UACC-257 melanoma) was > 100 µM, the TGI (KM12 colon) was > 100 µM and the TGI (786-0 renal) was > 100 µM. For the same molecule, the TGI (COLO 205 colon) was > 100 µM, the TGI (NCI-H460 lung) was > 100 µM and the TGI (DMS 273 small cell lung) was > 100 µM. For the same molecule, the TGI (SNB-75 CNS) was 99.6 µM.

In the case of `CCN=C(NNc1ccc([N+](=O)[O-])cc1)P(=O)(OC(C)C)OC(C)C`, the TGI (NCI-H23 lung) is reported as > 100 µM, the TGI (A549 NSCLC) is reported as > 100 µM and the TGI (CCRF-CEM leukemia) is reported as > 100 µM. For the same molecule, the TGI (SNB-19 CNS) was > 100 µM, the TGI (CAKI-1 renal) was > 100 µM and the TGI (SW-620 colon) was > 100 µM. For the same molecule, the TGI (HOP-62 NSCLC) was > 100 µM, the TGI (NCI-H522 lung) was > 100 µM and the TGI (UACC-257 melanoma) was > 100 µM. For the same molecule, the TGI (KM12 colon) was > 100 µM, the TGI (786-0 renal) was > 100 µM and the TGI (COLO 205 colon) was > 100 µM. The TGI (NCI-H460 lung) was > 100 µM, the TGI (DMS 273 small cell lung) was > 100 µM and the TGI (SNB-75 CNS) was > 100 µM.

For `Clc1ccc2c(c1)C1C(CO2)C(c2ccccc2)=NN1c1ccccc1` (stereo not drawn), the TGI (NCI-H23 lung) was 99.8 µM, the TGI (A549 NSCLC) was > 100 µM and the TGI (CCRF-CEM leukemia) was 99.1 µM. The TGI (SNB-19 CNS) was > 100 µM, the TGI (RXF 393 renal) was > 100 µM and the TGI (SW-620 colon) was > 100 µM. The TGI (IGROV1 ovarian) was > 100 µM, the TGI (HOP-62 NSCLC) was > 100 µM and the TGI (UACC-257 melanoma) was > 100 µM. For the same molecule, the TGI (KM12 colon) was > 100 µM, the TGI (786-0 renal) was > 100 µM and the TGI (COLO 205 colon) was > 100 µM. The TGI (NCI-H460 lung) was > 100 µM, the TGI (DMS 273 small cell lung) was 88.7 µM and the TGI (SNB-75 CNS) was 82.9 µM.

`COc1ccc(/C=C/C(=O)/C=C/c2ccc(OC)cc2)cc1` was tested, and the TGI (NCI-H23 lung) was > 100 µM, the TGI (A549 NSCLC) was > 100 µM and the TGI (CCRF-CEM leukemia) was > 100 µM. For the same molecule, the TGI (SNB-19 CNS) was > 100 µM, the TGI (CAKI-1 renal) was > 100 µM and the TGI (RXF 393 renal) was 36.6 µM. For the same molecule, the TGI (SW-620 colon) was 52.5 µM, the TGI (IGROV1 ovarian) was > 100 µM and the TGI (HOP-62 NSCLC) was > 100 µM. The TGI (NCI-H522 lung) was > 100 µM, the TGI (HS 578T breast) was > 100 µM and the TGI (UACC-257 melanoma) was 41.3 µM. The TGI (KM12 colon) was 59.6 µM, the TGI (786-0 renal) was > 100 µM and the TGI (MCF7 breast) was > 100 µM. The TGI (COLO 205 colon) was 95.4 µM, the TGI (NCI-H460 lung) was > 100 µM and the TGI (SNB-75 CNS) was > 100 µM. The TGI (MDA-MB-435) was 29.6 µM.
